Measured values reported in ChEMBL document CHEMBL1201862, “PubChem BioAssay data set” (2004).
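Tested at 5 concentrations; 48 h exposure; 96-well plates; endpoints linearly interpolated, else capped at highest concentration. The concentration for 50% growth inhibition is given as GI50.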 The source made the active and inactive calls. Rule as the data show it: active = GI50 up to about 1.1 µM and inactive = higher.

Tests used:
Assay in all cases: NCI-60 cell line screen, 48 h
CAKI-1 = test system: CAKI-1
CCRF-CEM = test system: CCRF-CEM
COLO 205 = test system: COLO 205
HCC 2998 = test system: HCC 2998
HCT-15 = test system: HCT-15
HL-60 = test system: HL-60
HOP-62 = test system: HOP-62
HT-29 = test system: HT-29
K562 = test system: K562
LOX IMVI = test system: LOX IMVI
MCF7 = test system: MCF7
MDA-MB-435 = test system: MDA-MB-435
MDA-N = test system: MDA-N
Malme-3M = test system: Malme-3M
OVCAR-3 = test system: OVCAR-3
SF-268 = test system: SF-268
SF-539 = test system: SF-539
SK-OV-3 = test system: SK-OV-3
SNB-19 = test system: SNB-19
UO-31 = test system: UO-31

C[C@]12CC[C@H](O)C[C@H]1CC[C@@H]1[C@@H]2CC[C@]2(C)[C@@H](C3=CC(=O)OC3)[C@@H](O)C[C@]12O [GITOXIGENIN]
GI50 (CAKI-1): 1580 nM (inactive)
GI50 (CCRF-CEM): 510 nM (active)
GI50 (COLO 205): 2610 nM (inactive)
GI50 (HCC 2998): 2470 nM (inactive)
GI50 (HCT-15): 2580 nM
GI50 (HL-60): 1620 nM (inactive)
GI50 (HOP-62): 1110 nM (active)
GI50 (HT-29): 3270 nM (inactive)
GI50 (K562): 3380 nM (inactive)
GI50 (LOX IMVI): 2900 nM (inactive)
GI50 (MCF7): 2050 nM (inactive)
GI50 (MDA-MB-435): 3010 nM (inactive)
GI50 (MDA-N): 2420 nM (inactive)
GI50 (Malme-3M): 1770 nM (inactive)
GI50 (OVCAR-3): 457 nM (active)
GI50 (SF-268): 845 nM (active)
GI50 (SF-539): 849 nM (active)
GI50 (SK-OV-3): 2710 nM (inactive)
GI50 (SNB-19): 4450 nM (inactive)
GI50 (UO-31): 914 nM (active)
